# Where “and” joins values, the source holds several entries; their conditions need not be identical. Equal entries are not always repeated. Where two headings read alike, the source gives them in different places.
# Tests used:
# [1] = test system: zebrafish larvae, 120 hpf; assay: Larval photomotor response (LPR) assay after vial exposure; format: in vivo, Danio rerio; conditions: LPR
# Protocol: (§1) When embryos were 6 hpf they were bleached in groups of 1000 or less to limit bacterial growth in sealed vials. Embryos were placed in a strainer for transfer between solutions in 500 mL containers. […] Pools of eight embryos were placed into 2 mL clear glass screw cap exposure vials with polyvinyl-faced pulp liner (Avantar Radnor, PA, United States) using a glass Pasteur pipette. Excess EM was removed, and 2 mL of fresh EM was immediately added. A total of 10 uL of 200x working stock (in DMSO) was added to each vial, then immediately capped and inverted three times to mix. […] Vials were loaded into a custom 3D printed vial holder for slow end-over-end rotation in a dark 28 °C incubator overnight. […] At 24 hpf, embryos were removed from exposure vials and singulated into 96-well plates loaded with 100 μL chemical-free EM. Each exposure vial group was maintained in plate columns. After loading into 96-well plates, embryos were assessed for 24-hour mortality. For the remainder of the exposure, plates were kept stationary at 28 °C in the dark, until 120 hpf when morphology screening and the larval photo motor response (LPR) assay were conducted, section 2.3.2 and section 2.3.3, respectively.
# Each treatment group was replicated over four vials, resulting in 32 embryos per treatment, split over two replicate 96-well plates per chemical. […] Vial groups of plated larvae were tracked to assess the impact of the vial on the results. All reported concentrations were nominal water concentrations and are included in SI-T4.
# The LPR assay was conducted at 120 hpf. […] Larval movement was tracked throughout minutes 6–24. Animals dead or morphologically abnormal were excluded from the analysis, and if more than 30 % of the wells in a treatment group were excluded, the treatment was removed.
# Movement values were binned into 6s intervals, log normalized and used to calculate area under the curve (AUC). AUC values from the first cycle after calibration were used to calculate the LEL for each period (light and dark).
# [2] = test system: early life stage zebrafish (Danio rerio) embryos; assay: Developmental toxicity morphology screen, sealed rotating vial exposure; format: in vivo; set-up: bmd, MO24 / bmd, MORT / bmd, ANY_ / bmd, AXIS / bmd, CRAN / bmd, EDEM / bmd, LTRK / bmd, MUSC / bmdL, ANY_ / bmdU, ANY_ / bmdL, AXIS / bmdU, AXIS / bmdL, CRAN / bmdU, CRAN / bmdL, EDEM / bmdU, EDEM / bmdL, LTRK / bmdU, LTRK / bmdL, MO24 / bmdU, MO24 / bmdL, MORT / bmdU, MORT: unit not given here; conditions: for morphological effects (BMC50 for any morphological endpoint): 0-50 μM, result in words
# Protocol: as §1
# Each treatment group was replicated over four vials, resulting in 32 embryos per treatment, split over two replicate 96-well plates per chemical. […] All reported concentrations were nominal water concentrations and are included in SI-T4.
# At 24 hpf embryos were assessed for mortality (MO24). At 120 hpf embryos were assessed for abnormality in […] morphological endpoints: mortality (MORT), edemas (EDEM), bent axis (AXIS), touch response (TCHR), craniofacial (CRAN), muscular/cardiovascular (MUSC), lower trunk (LRTK), brain (BRAN), skin (SKIN), and notochord malformations (NC). Morphological assessments were made by a team of three to four individuals. The team was blinded to the identity, plate layout, and concentrations of the chemicals, thereby minimizing bias in morphological screening assessment. To ensure the assessments were consistent, concentration–response reproducibility of a parathion ethyl quality control plate was performed along with each experimental exposure set up. Details of all measured endpoints can be found at Developmental toxicity zebrafish phenotype atlas. […] Each endpoint was scored as a binary presence/absence and scores were compiled into an “Any effect” endpoint, the presence of abnormality in any individual endpoint.
# The Any effect percent was used to calculate the BMC50, 50 % change relative to the background for each endpoint and chemical. All values were reported as the nominal exposure concentration.
# lung tissue = conditions: compared to naphthalene and monomethylated derivatives, ref Honda et al., 1990, cited from earlier work
# zebrafish embryos [3] = conditions: 96-well, cited from earlier work
# [4] = Body burden measurement (GC-MS/MS) and concentration uptake ratio, vial exposure; format: in vivo, Danio rerio; conditions: zebrafish (Danio rerio), whole embryos (32 pooled, ethyl acetate extract), other: waterborne exposure of embryos in sealed vials, 20 μM exposure, 32 pooled embryos, 0.5 mL extract, single replicates, read-out: measured concentration in embryo extract
# Protocol: (§2) Body burden was measured for exposure to five chemicals at two timepoints: 24 and 48 hpf. […] The exposure concentration was chosen as it was the maximum possible concentration that ensured enough viable animals for collection at 48 hpf and allowed direct comparison of chemical uptake at the same exposure concentration.
# (§3) Chemicals were exposed at 20 μM following the exposure procedure detailed in section 1.3, 24 vials per chemical. At 24 hpf, embryos were pooled in groups of 32 embryos (combining embryos from 4 vials) into 1.5 mL polypropylene RINO-safe lock tubes (n = 3 per chemical treatment, n = 3 per control). Tubes were briefly placed on ice to reduce embryo movement (<1 min); the remaining medium was removed; the tube was then flash frozen in liquid nitrogen and stored at −20 °C until extraction. Embryos in the remaining vials were plated as previously described in section 1.3 until collection at 48 hpf following the same procedure as 24 hpf collections (n = 3 per chemical treatment, n = 1 control).
# (§4) Tissue extraction was performed as previously reported ([Rude et al., 2025]). Each sample was spiked with 25 μL internal standard in ethyl acetate and 100 μL of 1 mm glass beads (Next Advance, Troy, NY United States) were added to the RINO-safe lock tubes containing thawed tissue samples and left on ice for 10 min 250 mg of Na2SO4 and 200 μL of ethyl acetate were added to each tube and vortexed. Tubes were homogenized at speed 8 for 6 min in a Bullet Blender (Next Advance, Troy, NY, United States). 300 μL of ethyl acetate was added to each tube and the homogenization step was repeated until no pieces of non-homogenized fish tissue remained. Samples were then centrifuged for 10 min at 4 °C, 1600g. Sample supernatant (0.5 mL) was collected into amber vials and stored at 4 °C until chemical analysis.
# (§5) Samples were analyzed for quantitation and identification of 161 PAHs. The method was performed with an Agilent 7890 gas chromatograph (GC), with a 7000C triple quadrupole mass spectrometer (MS/MS) using an Agilent J&W PAH select (30 m × 250 μm × 0.15 μm GC column). Calibration for each analyte utilized at least a 4-point (range: 4–7, median 6 points, n = 161) curve with R^2 ≥ 0.99. Specific instrument conditions were modified from [Anderson et al. (2015)] and are detailed in Table S3. GC–MS/MS data was analyzed using MassHunter Quantitative Analysis v.B.06.00 SP1 build 6.0.388.1 software (Agilent Corp. Wilmington,DE) ([Anderson et al., 2015]). Dynamic muti-reaction monitoring mode was used during analyses, and all PAHs were identified using analytical standards obtained from multiple sources (Table S1). Collison energies were optimized for each individual unsubstituted PAH, alkylation series (C1, C2, etc.), and when possible, specific alkylation group (i.e. methyl, ethyl, etc.).
# (§6) Body burden concentrations based on average embryo wet weight at each timepoint were determined by the equation below. Total measured chemical was calculated from ng/mL concentrations times sample volume (0.5 mL). Bodyburdennmol/mgbw=total measured chemicalnmol/number of fish32×average body weightmg
# (§7) Average body weights at 24 hpf and 48 hpf were assumed to be 0.31 mg and 0.26 mg, respectively as determined previously ([Rericha et al., 2024]). Statistical analysis to compare time points within chemicals was performed using a two-sided Student’s t-test (p-value ≤ 0.05). An ANOVA with a follow-up Dunn’s test was used to compare body burden between chemicals at 24 hpf (p-value ≤ 0.05). Body burden concentrations at 24 hpf were compared to the estimated percent effect of each measured chemical at the exposure concentration used for body burden analysis (20 μM). These estimates were made using the fitted concentration-response curves previously described in section 2.3.2.2.
# (§8) Concentration uptake ratios between vial exposures and 96-well plate exposures were compared using a two-sided Student’s t-test, p-values ≤ 0.05 were considered significant. […]
# zebrafish embryos [5] = assay: as above; format: in vivo, Danio rerio; conditions: for measured concentration in embryo extract: 20 μM exposure, 32 pooled embryos, 0.5 mL extract, single replicates; for nmol/embryo per nmol available / nmol/embryo: Current study, vial, 20 μM; for nmol/embryo: single chemical
# Protocol: as §2, §3, §4, §5, §6, §7, §8
# [6] = period dark, round 1, conc 3.125
# [7] = period dark, round 1, conc 6.25
# [8] = period dark, round 1, conc 12.5
# [9] = period light, round 1, conc 3.125
# [10] = period light, round 1, conc 6.25
# [11] = period light, round 1, conc 12.5
# [12] = 24 hpf, 2.6 μM, mixture, ref Rude et al 2025
# [13] = 48 hpf, 2.6 μM, mixture, ref Rude et al 2025
structure (smiles),measurement,setting,value
CC(C)c1ccc2ccccc2c1 [2-isopropylnaphthalene],fold_change,[1]; [6],-0.04413
same,fold_change,[1]; [7],-0.6849
same,fold_change,[1]; [8],-1.554
same,fold_change,"[1]; period dark, round 2, conc 12.8",-0.9379
same,fold_change,"[1]; period dark, round 2, conc 16",-1.368
same,fold_change,"[1]; period dark, round 2, conc 20",-1.899
same,fold_change,[1]; [9],0.2872
same,fold_change,[1]; [10],0.3099
same,fold_change,[1]; [11],1.277
same,fold_change,"[1]; period light, round 2, conc 12.8",-0.1327
same,fold_change,"[1]; period light, round 2, conc 16",-0.2493
same,fold_change,"[1]; period light, round 2, conc 20",0.1913
same,BMC50 MO24 (mortality at 24 hpf),"[2]; Fig. 2, nominal concentration",29.9 µM
same,BMC50 MORT (mortality at 120 hpf),"[2]; Fig. 2, nominal concentration",25.2 µM
same,BMC50 Any effect,"[2]; Fig. 2 heatmap, nominal concentration, exposure 6-24 hpf in vials, summary of all endpoints",19.8 µM
same,any effect BMD50,[2]; SI-T5,19.85 µM
same,"bmd, MO24","[2]; endpoint MO24, benchmark dose",29.9264
same,"bmdL, MO24","[2]; endpoint MO24, lower limit of benchmark dose",27.6751
same,"bmdU, MO24","[2]; endpoint MO24, upper limit of benchmark dose",32.9501
same,"bmd, MORT","[2]; endpoint MORT, benchmark dose",25.1507
same,"bmdL, MORT","[2]; endpoint MORT, lower limit of benchmark dose",24.3232
same,"bmdU, MORT","[2]; endpoint MORT, upper limit of benchmark dose",26.3204
same,"bmd, ANY_","[2]; morphology endpoint ANY_, benchmark dose",19.8483
same,"bmdL, ANY_","[2]; morphology endpoint ANY_, lower limit of benchmark dose",18.4734
same,"bmdU, ANY_","[2]; morphology endpoint ANY_, upper limit of benchmark dose",21.3892
same,toxicity / lung tissue damage in mice,lung tissue,minimally active
"CC(C)c1ccc2cc(C(C)C)ccc2c1 [2,6-diisopropylnaphthalene]",fold_change,[1]; [6],-0.1214
same,fold_change,[1]; [7],0.07359
same,fold_change,[1]; [8],-0.001373
same,fold_change,"[1]; period dark, round 1, conc 25",-0.09025
same,fold_change,"[1]; period dark, round 1, conc 50",-0.07941
same,fold_change,[1]; [9],-0.5097
same,fold_change,[1]; [10],-1.08
same,fold_change,[1]; [11],-0.05494
same,fold_change,"[1]; period light, round 1, conc 25",-0.2588
same,fold_change,"[1]; period light, round 1, conc 50",-0.8125
same,morphological effects (BMC50 for any morphological endpoint),[2],lack of activity
same,toxicity / lung tissue damage in mice,lung tissue,minimal damage to lung tissue
same,toxicity / lung tissue damage in mice,"lung tissue; listed as 2,6-diidopropylnaphthalene",minimally active
c1ccc2ccccc2c1 [naphthalene],mean nmol/embryo per nmol available,zebrafish embryos [3]; [12],0.004595
same,nmol/embryo,zebrafish embryos [3]; [12],0.001159 nmol/embryo and 0.001224 nmol/embryo and 0.001235 nmol/embryo
same,nmol/embryo per nmol available,zebrafish embryos [3]; [12],0.00446 and 0.00471 and 0.004751
same,nmol/embryo,zebrafish embryos [3]; [13],0.0007856 nmol/embryo and 0.00092 nmol/embryo and 0.0008366 nmol/embryo and 0.0008192 nmol/embryo
same,nmol/embryo per nmol available,zebrafish embryos [3]; [13],0.003022 and 0.003538 and 0.003218 and 0.003151
same,nmol/embryo,"zebrafish embryos [3]; 48 hpf, 5.39 μM, single chemical, ref Geier et al 2018",0.0007734 nmol/embryo and 0.0007422 nmol/embryo and 0.000789 nmol/embryo
same,nmol/embryo per nmol available,"zebrafish embryos [3]; 48 hpf, 5.39 μM, ref Geier et al 2018",0.001435 and 0.001377 and 0.001464
same,nmol/embryo,"zebrafish embryos [3]; 48 hpf, 11.6 μM, single chemical, ref Geier et al 2018",0.001794 nmol/embryo and 0.001746 nmol/embryo and 0.001648 nmol/embryo
same,nmol/embryo per nmol available,"zebrafish embryos [3]; 48 hpf, 11.6 μM, ref Geier et al 2018",0.001547 and 0.001505 and 0.001421
same,nmol/embryo,"zebrafish embryos [3]; 48 hpf, 25 μM, single chemical, ref Geier et al 2018",0.002233 nmol/embryo and 0.002584 nmol/embryo and 0.002516 nmol/embryo
same,nmol/embryo per nmol available,"zebrafish embryos [3]; 48 hpf, 25 μM, ref Geier et al 2018",0.0008933 and 0.001034 and 0.001006
same,"concentration at 24 hpf, 20 μM",[4]; 24 hpf,6500 ng/mL
same,"concentration at 48 hpf, 20 μM",[4]; 48 hpf,75.6 ng/mL
same,measured concentration in embryo extract,zebrafish embryos [5]; 24 hpf,4400 ng/mL and 5130 ng/mL
same,measured concentration in embryo extract,zebrafish embryos [5]; 48 hpf,66.9 ng/mL and 62 ng/mL
same,nmol/embryo per nmol available,zebrafish embryos [5]; 24 hpf,0.1585 and 0.1073 and 0.1251
same,nmol/embryo,zebrafish embryos [5]; 24 hpf,0.7924 nmol/embryo and 0.5364 nmol/embryo and 0.6254 nmol/embryo
same,nmol/embryo per nmol available,zebrafish embryos [5]; 48 hpf,0.001843 and 0.001631 and 0.001512
same,nmol/embryo,zebrafish embryos [5]; 48 hpf,0.009216 nmol/embryo and 0.008156 nmol/embryo and 0.007558 nmol/embryo
same,morphological effects (BMC50 for any morphological endpoint),[2],no morphological BMC50 values

# Reference: PMC12560828, “Chemical structure drives developmental toxicity of alkyl-substituted naphthalenes in zebrafish” (Environment international, 2025)
